Reference: patent US12606528B2, “Methods and materials for inhibiting NF-kB activity” (University of Pittsburgh - Of the Commonwealth System of …, priority 2019, dated 2026)
Like-named read-outs stand apart in the source and are kept apart here.

Key:
TNF release = assay: TNF assay: TNF release from LPS-stimulated human PBMCs (TNF ELISA); assay type: cell-based; settings: PBMC, read-out: IC50 (TNF assay)
How it was run: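 Human PBMCs at 10k/well pretreated with compound dilutions 2 h, then stimulated with LPS (10 ng/mL) for 18 h. TNF in supernatants quantified by ELISA; IC50 for inhibition of TNF release fitted from concentration–response.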

NF-κB = NF-κB assay: THP1-NF-κB-LUC cells, LPS-stimulated secreted luciferase; assay type: cell-based; settings: THP1-NF-κB-LUC cells, read-out: IC50 (NF-κB assay)
How it was run: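 THP1-NF-κB-LUC cells (25k/well) were pretreated with compounds for 2 h, then stimulated with LPS (10 ng/mL) for 18 h. Secreted luciferase was measured and normalized to vehicle, and IC50 was fitted from the concentration series.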

[1] = human PBMCs, compounds 2 hours before LPS (10 ng/ml) for 18 hours, supernatant TNF ELISA
[2] = compounds 2 hours before LPS (10 ng/mL) for 18 hours, secreted luciferase
[3] = LPS-stimulated human PBMCs, TNF ELISA

Row | Structure (SMILES) | IC50 (TNF release; [1]) [µM] | IC50 (NF-κB; [2]) [nM] | IC50 (TNF release; [3]) [µM] | IC50 (NF-κB; LPS-stimulated) [nM]
1 | CC(C)CC1Oc2cc(S(=O)(=O)Nc3cccc(Cl)c3)c(Br)cc2NC1=O (stereo not drawn) [BC19776] | > 10 | 100 to 1000 |  | 
2 | CN1CCN(C(=O)c2ccc3nc(-c4ccc(F)cc4)c(-c4ccc(OC(F)(F)F)cc4)nc3c2)CC1 [BC19399] |  |  | > 10 | > 10000
3 | Cc1ccc(Cl)cc1NS(=O)(=O)c1cc2c(cc1Cl)NC(=O)CO2 [BC19162] | > 10 | > 10000 |  | 
4 | C#CCNC(=O)c1cccc2nc(-c3ccc(F)cc3)c(-c3ccc(F)cc3)nc12 [BC19321] |  |  | > 10 | 1000 to 10000
5 | O=C1CCOc2c(cc(Br)cc2S(=O)(=O)Nc2cccc(Cl)c2)N1 [BC19650] |  |  | > 10 | < 100
6 | O=c1[nH]ccc2cc(S(=O)(=O)c3ccccc3)ccc12 [BC19579] | > 10 | > 10000 |  | 
7 | CCC1Oc2cc(S(=O)(=O)Nc3ccccc3)c(Cl)cc2NC1=O (stereo not drawn) [BC19737] | > 10 | 100 to 1000 |  | 
8 | O=S(=O)(c1ccc(Cl)cc1)c1nc(-c2cccc(F)c2)oc1S(=O)(=O)C1CCCCC1 [BC19412] |  |  | 0.1 to 1 | 100 to 1000
9 | CCCS(=O)(=O)c1sc(C2CCCCC2)nc1S(=O)(=O)c1ccc(Cl)cc1 [BC19646] |  |  | > 10 | > 10000
10 | CC(C)CS(=O)(=O)c1oc(-c2ccc(Cl)cc2)nc1S(=O)(=O)c1ccc(Cl)cc1 [BC19419] |  |  | 0.1 to 1 | 1000 to 10000
11 | O=C1NCCOc2c1cc(Br)cc2S(=O)(=O)Nc1ccc(F)c(F)c1 [BC19551] |  |  | > 10 | 100 to 1000
12 | Fc1ccc(-c2nc3ccc(-c4nnco4)cc3nc2-c2ccc(F)cc2)cc1 [BC19250] |  |  | > 10 | < 100
13 | CCC[S+]([O-])c1c(S(=O)(=O)c2ccc(F)cc2)nc(-c2ccccc2)n1C (stereo not drawn) [BC19600] |  |  | > 10 | > 10000
14 | O=C(NCCN1CCOCC1)Nc1ccc2nc(-c3ccc(F)cc3)c(-c3ccc(F)cc3)nc2c1 [BC19567] |  |  | 1 to 10 | 100 to 1000
15 | CCC1Oc2cc(S(=O)(=O)Nc3ccc(F)cc3F)c(Br)cc2N(C)C1=O (stereo not drawn) [BC19914] | > 10 | 100 to 1000 |  | 
16 | CCC[S+]([O-])c1oc(-c2ccc(F)cc2)nc1S(=O)(=O)c1ccc(Cl)cc1 (stereo not drawn) [BC19332] |  |  | < 0.1 | 100 to 1000
17 | O=C(NCCO)c1ccc2nc(-c3ccc(Cl)cc3)c(-c3ccc(Cl)cc3)nc2c1 [BC19452] |  |  | > 10 | 100 to 1000
18 | CCc1ccc(NS(=O)(=O)c2cc3c(cc2Br)N(C)C(=O)C(CC)O3)cc1 (stereo not drawn) [BC19932] | 1 to 10 | < 100 |  | 
19 | CC1Oc2cc(S(=O)(=O)Nc3ccccc3)c(Br)cc2N(C)C1=O (stereo not drawn) [BC19790] | > 10 | 1000 to 10000 |  | 

Row | Structure (SMILES) | IC50 (TNF release; [1]) [µM] | IC50 (NF-κB; [2]) [nM] | IC50 (TNF release; [3]) [µM] | IC50 (NF-κB; LPS-stimulated) [nM]
20 | CC1Oc2c(cc(Br)cc2S(=O)(=O)NCCc2ccc(OC(F)(F)F)cc2)NC1=O (stereo not drawn) [BC19364] | > 10 | > 10000 |  | 
21 | O=C1CCOc2c(cc(Br)cc2S(=O)(=O)Nc2cccc(F)c2)N1 [BC19649] |  |  | > 10 | < 100
22 | CC1Oc2c(cc(Br)cc2S(=O)(=O)Nc2ccc(C(C)C)cc2)N(C)C1=O (stereo not drawn) [BC19793] | > 10 | < 100 |  | 
23 | CCC1Oc2c(cc(Cl)cc2S(=O)(=O)Nc2ccc(F)c(F)c2)NC1=O (stereo not drawn) [BC19736] | > 10 | < 100 |  | 
24 | CCC1Oc2c(cc(Br)cc2S(=O)(=O)Nc2ccc(Cl)cc2)NC1=O (stereo not drawn) [BC19290] | > 10 | < 100 |  | 
25 | Cc1ccc(NS(=O)(=O)c2c(C)c(Cl)cc3c2OCC(=O)N3)cc1Cl [BC19433] | > 10 | < 100 |  | 
26 | CCc1ccc(NS(=O)(=O)c2cc(Br)cc3c2OCCNC3=O)cc1 [BC19604] |  |  | > 10 | 1000 to 10000
27 | CC(C)S(=O)(=O)c1sc(-c2ccc(Cl)cc2)nc1S(=O)(=O)c1ccc(Cl)cc1 [BC19622] |  |  | 1 to 10 | 1000 to 10000
28 | OCCn1ncc(-c2ccc3nc(-c4ccc(F)cc4)c(-c4ccc(F)cc4)nc3c2)n1 [BC19404] |  |  | > 10 | 1000 to 10000
29 | N#Cc1ccc2nc(-c3ccc(F)cc3)c(C(F)(F)F)nc2c1 [BC19158] |  |  | > 10 | > 10000
30 | CCc1ccc(NS(=O)(=O)c2cc3c(cc2Br)NC(=O)C(CC(C)C)O3)cc1 (stereo not drawn) [BC19764] | > 10 | 1000 to 10000 |  | 
31 | CS(=O)(=O)c1cc2c(c(S(=O)(=O)Nc3ccc(F)cc3)c1)OCC(=O)N2 [BC19430] | > 10 | < 100 |  | 
32 | CCc1cccc(NS(=O)(=O)c2cc3c(cc2Br)NC(=O)CO3)c1 [BC19167] | > 10 | 100 to 1000 |  | 
33 | CCCS(=O)(=O)c1sc(-c2ccc(Cl)cc2)nc1S(=O)(=O)c1ccc(F)cc1 [BC19536] |  |  | 0.1 to 1 | 1000 to 10000
34 | CC1Oc2c(cc(Br)cc2S(=O)(=O)Nc2cccc(F)c2)N(C)C1=O (stereo not drawn) [BC19902] | > 10 | < 100 |  | 
35 | O=C1NCCOc2c1cc(Br)cc2S(=O)(=O)Nc1cccc(Cl)c1 [BC19611] |  |  | > 10 | < 100
36 | CCC[S+]([O-])c1sc(-c2cccc(F)c2)nc1S(=O)(=O)c1ccc(F)cc1 (stereo not drawn) [BC19590] |  |  | 1 to 10 | 1000 to 10000
37 | Cc1ccc(NS(=O)(=O)c2cc(Br)cc3c2OC(C)C(=O)N3C)cc1F (stereo not drawn) [BC19785] | > 10 | < 100 |  | 
38 | CCc1cccc(NS(=O)(=O)c2cc(Br)cc3c2OCC(=O)N3)c1 [BC19180] | > 10 | < 100 |  | 

Row | Structure (SMILES) | IC50 (TNF release; [1]) [µM] | IC50 (NF-κB; [2]) [nM] | IC50 (TNF release; [3]) [µM] | IC50 (NF-κB; LPS-stimulated) [nM]
39 | CCCS(=O)(=O)c1oc(-c2ccc(C)cc2)nc1S(=O)(=O)c1ccc(Br)cc1 [BC19130] |  |  | 0.1 to 1 | 100 to 1000
40 | CN1CCN(C(=O)c2cccc3nc(-c4ccc(F)cc4)c(-c4ccc(F)cc4)nc23)CC1 [BC19400] |  |  | > 10 | > 10000
41 | O=C(NCCN1CCOCC1)c1ccc2nc(-c3ccc(Cl)cc3)c(-c3ccc(Cl)cc3)nc2c1 [BC19497] |  |  | > 10 | < 100
42 | Cc1ccc(C)c2c(=O)c(S(=O)(=O)c3ccc(F)c(F)c3)c[nH]c12 [BC19198] | > 10 | 1000 to 10000 |  | 
43 | COc1cccc(-c2nc(S(=O)(=O)c3ccc(Cl)cc3)c(S(=O)(=O)C(C)C)[nH]2)c1 [BC19336] |  |  | > 10 | > 10000
44 | O=S(=O)(c1ccc(Cl)cc1)c1nc(-c2cccc(F)c2)sc1S(=O)(=O)C1CCCCC1 [BC19583] |  |  | > 10 | > 10000
45 | CC(C)CC1Oc2c(cc(Br)cc2S(=O)(=O)Nc2ccc(F)c(F)c2)NC1=O (stereo not drawn) [BC19759] | > 10 | < 100 |  | 
46 | O=C1COc2cc(S(=O)(=O)NCCc3ccc(OC(F)(F)F)cc3)c(Br)cc2N1 [BC19387] | > 10 | > 10000 |  | 
47 | CCC1Oc2cc(S(=O)(=O)Nc3ccc(C)cc3)c(Br)cc2NC1=O (stereo not drawn) [BC19224] | > 10 | 100 to 1000 |  | 
48 | O=S(=O)(c1ccc(F)cc1)c1nc(-c2ccccc2)[nH]c1[S+]([O-])CC1CC1 (stereo not drawn) [BC19469] |  |  | > 10 | 1000 to 10000
49 | C[S+]([O-])c1oc(-c2cccc(F)c2)nc1S(=O)(=O)c1ccc(Cl)cc1 (stereo not drawn) [BC19342] |  |  | < 0.1 | < 100
50 | O=c1c(S(=O)(=O)c2ccc(F)c(F)c2)cnc2ccccn12 [BC19257] | > 10 | > 10000 |  | 
51 | O=S(=O)(CC1CC1)c1oc(-c2ccccc2)nc1S(=O)(=O)c1ccc(Cl)cc1 [BC19330] |  |  | 0.1 to 1 | 100 to 1000
52 | CN1CCC(C(=O)Nc2ccc3nc(-c4ccc(F)cc4)c(-c4ccc(F)cc4)nc3c2)CC1 [BC19309] |  |  | 1 to 10 | 100 to 1000
53 | O=S(=O)(c1ccccc1)c1cnn(-c2ccccc2)c1 [BC19204] |  |  | > 10 | > 10000
54 | CCS(=O)(=O)c1cc2c(c(S(=O)(=O)Nc3ccc(Cl)cc3)c1)OCC(=O)N2 [BC19491] | > 10 | < 100 |  | 
55 | N=C(NO)c1ccc2nc(-c3ccc(F)cc3)c(-c3ccc(F)cc3)nc2c1 [BC19194] |  |  | > 10 | < 100
56 | CCC1Oc2cc(S(=O)(=O)Nc3ccc(F)cc3Cl)c(Cl)cc2NC1=O (stereo not drawn) [BC19755] | > 10 | 1000 to 10000 |  | 
57 | CN1CCN(C(=O)c2ccc3nc(C(F)(F)F)c(-c4ccccc4F)nc3c2)CC1 [BC19106] |  |  | > 10 | > 10000
